{"source": "patent US7473790B2", "about": "(Pfizer Inc., priority 2003, dated 2009)", "molecular_target": "T1, HCV polymerase (Hepatitis C virus genotype 1b, UniProt P26663)", "T1 construct": "2.5 pmoles (0.15 μg) HCV polymerase protein in a final volume of 75 μL", "T1 sequence (P26663 2420-3010)": "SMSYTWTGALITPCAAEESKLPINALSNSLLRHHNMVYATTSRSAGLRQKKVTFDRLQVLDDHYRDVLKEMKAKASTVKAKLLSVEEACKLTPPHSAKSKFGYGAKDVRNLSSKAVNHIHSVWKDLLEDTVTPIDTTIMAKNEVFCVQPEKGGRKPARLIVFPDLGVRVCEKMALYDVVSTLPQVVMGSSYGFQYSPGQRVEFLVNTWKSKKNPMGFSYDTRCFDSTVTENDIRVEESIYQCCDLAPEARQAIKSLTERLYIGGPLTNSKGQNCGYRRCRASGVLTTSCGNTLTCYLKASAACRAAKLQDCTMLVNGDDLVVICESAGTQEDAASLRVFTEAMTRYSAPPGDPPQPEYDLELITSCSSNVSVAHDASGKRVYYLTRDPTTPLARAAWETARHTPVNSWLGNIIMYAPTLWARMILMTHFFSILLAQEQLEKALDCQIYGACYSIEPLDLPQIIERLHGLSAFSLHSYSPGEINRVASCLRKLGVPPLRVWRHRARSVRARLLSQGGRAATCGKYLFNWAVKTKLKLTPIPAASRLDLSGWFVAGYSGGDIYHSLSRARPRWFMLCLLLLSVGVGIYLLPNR", "test": "HCV polymerase primer/template-directed transcription assay (32P-GTP incorporation, filter binding)", "assay_type": "biochemical", "details": "recombinant HCV polymerase; 30 minutes at 30° C.; concentration giving 50% inhibition of polymerase-directed transcription; read-out: IC50", "how_it_was_run": "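IC50s come from triplicate cpm, refit with an enzyme-concentration (30 nM) correction when under 200 nM. Reactions ran 30 min at 30° C in Tris pH 7.2 with MgCl2, 1 μM GTP spiked with α-32P-GTP, biotin-dG12 primer and poly(rC)300 template, with 1% DMSO. Incorporated label was collected on DE filtermats and counted.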", "data": [{"molecule": "CCc1cc(CCC2(C3CCCC3)CC(O)=C(Cc3nc4nc(C)cc(C)n4n3)C(=O)O2)c(OC)cc1O", "note": "(single isomer, unassigned) [A(154), 6-Cyclopentyl-3-(5,7-dimethyl-[1,2,4]triazolo[1,5-a]pyrimidin-2-ylmethyl)-6-[2-(5-ethyl-4-hydroxy-2-methoxy-phenyl)-ethyl]-4-hydroxy-5,6-dihydro-pyran-2-one]", "values": [{"measurement": "IC50", "result": 5, "unit": "nM"}]}, {"molecule": "CC(C)(O)c1ccc(CCC2(C3CCCC3)CC(=O)CC(=O)O2)cc1F", "note": "(stereo not drawn) [A(215), 6-cyclopentyl-6-{2-[3-fluoro-4-(1-hydroxy-1-methylethyl)phenyl]ethyl}dihydro-2H-pyran-2,4(3H)-dione]", "values": [{"measurement": "IC50", "result": 4900, "unit": "nM"}]}, {"molecule": "Cn1c(CC2=C(O)CC(CCc3ccc(OCC4CC4)c(Cl)c3)(C3CCCC3)OC2=O)nc2ccccc21", "note": "(stereo not drawn) [B(26), 6-[2-(3-Chloro-4-cyclopropylmethoxy-phenyl)-ethyl]-6-cyclopentyl-4-hydroxy-3-(1-methyl-1H-benzoimidazol-2-ylmethyl)-5,6-dihydro-pyran-2-one]", "values": [{"measurement": "IC50", "result": 2300, "unit": "nM"}]}, {"molecule": "CCc1ccc(O)c(CCC2(C3CCCC3)CC(O)=C(Cc3nc4nc(C)cc(C)n4n3)C(=O)O2)c1", "note": "(single isomer, unassigned; enantiomer 2) [A(168), Enantiomer 2 of 6-Cyclopentyl-3-(5,7-dimethyl-[1,2,4]triazolo[1,5-a]pyrimidin-2-ylmethyl)-6-[2-(5-ethyl-2-hydroxy-phenyl)-ethyl]-4-hydroxy-5,6-dihydro-pyran-2-one]", "values": [{"measurement": "IC50", "result": 9, "unit": "nM"}]}, {"molecule": "N#CCc1cccc(C#CC2(C3CCCC3)CC(=O)CC(=O)O2)c1", "note": "(stereo not drawn) [E(3), [3-(2-Cyclopentyl-4,6-dioxo-tetrahydro-pyran-2-ylethynyl)-phenyl]-acetonitrile]", "values": [{"measurement": "IC50", "result": 65000, "unit": "nM"}]}, {"molecule": "Cc1cc(C)n2nc(CC3C(=O)CC(CCc4cccc(C(C)C)c4)(C4CCCC4)OC3=O)nc2n1", "note": "(stereo not drawn) [B(49), 6-cyclopentyl-3-[(5,7-dimethyl[1,2,4]triazolo[1,5-a]pyrimidin-2-yl)methyl]-6-[2-(3-isopropylphenyl)ethyl]dihydro-2H-pyran-2,4(3H)-dione]", "values": [{"measurement": "IC50", "result": 10, "unit": "nM"}]}, {"molecule": "COc1ccc(CCC2(C3CCCC3)CC(O)=C(Sc3nc4cc(Cl)c(Cl)cc4n3C)C(=O)O2)cc1Cl", "note": "(stereo not drawn) [C(60), 6-[2-(3-chloro-4-methoxyphenyl)ethyl]-6-cyclopentyl-3-[(5,6-dichloro-1-methyl-1H-benzimidazol-2-yl)thio]-4-hydroxy-5,6-dihydro-2H-pyran-2-one]", "values": [{"measurement": "IC50", "result": 15, "unit": "nM"}]}, {"molecule": "CC(=O)Oc1ccc(CCC2(C3CCCC3)CC(=O)CC(=O)O2)cc1C(C)C", "note": "(stereo not drawn) [A(94), Acetic acid 4-[2-(2-cyclopentyl-4,6-dioxo-tetrahydro-pyran-2-yl)-ethyl]-2-isopropyl-phenyl ester]", "values": [{"measurement": "IC50", "result": 4000, "unit": "nM"}]}, {"molecule": "CC(C)(C#N)c1ccc(CCC2(C3CCCC3)CC(O)=C(Cc3nc4ncc(Cl)cn4n3)C(=O)O2)cc1Cl", "note": "(single isomer, unassigned) [A(204), 2-(2-Chloro-4-{2-[5-(6-chloro-[1,2,4]triazolo[1,5-a]pyrimidin-2-ylmethyl)-2-cyclopentyl-4-hydroxy-6-oxo-3,6-dihydro-2H-pyran-2-yl]-ethyl}-phenyl)-2-methyl-propionitrile]", "values": [{"measurement": "IC50", "result": 17, "unit": "nM"}]}, {"molecule": "Cc1cnc2nc(CC3=C(O)CC(CCc4ccc(C(C)(C)C#N)c(Cl)c4)(C4CCCC4)OC3=O)nn2c1", "note": "(racemic) [A(202), 2-(2-Chloro-4-{2-[2-cyclopentyl-4-hydroxy-5-(6-methyl-[1,2,4]triazolo[1,5-a]pyrimidin-2-ylmethyl)-6-oxo-3,6-dihydro-2H-pyran-2-yl]-ethyl}-phenyl)-2-methyl-propionitrile]", "values": [{"measurement": "IC50", "result": 12, "unit": "nM"}]}, {"molecule": "Cc1cc(C)n2nc(CC3=C(O)CC(CCc4ccc(OC(C)C)c(F)c4)(C4CCCC4)OC3=O)nc2n1", "note": "(single isomer, unassigned) [J(4), 6-cyclopentyl-3-[(5,7-dimethyl[1,2,4]triazolo[1,5-a]pyrimidin-2-yl)methyl]-6-[2-(3-fluoro-4-isopropoxyphenyl)ethyl]-4-hydroxy-5,6-dihydro-2H-pyran-2-one]", "values": [{"measurement": "IC50", "result": 19, "unit": "nM"}]}, {"molecule": "CC1(c2ccc(CCC3(C4CCCC4)CC(=O)CC(=O)O3)cc2Cl)OCCO1", "note": "(stereo not drawn) [B(123), 6-{2-[3-Chloro-4-(2-methyl-[1,3]dioxolan-2-yl)-phenyl]-ethyl}-6-cyclopentyl-dihydro-pyran-2,4-dione]", "values": [{"measurement": "IC50", "result": 580, "unit": "nM"}]}, {"molecule": "O=C1CC(=O)OC(CCc2ccc(O)c(CO)c2)(C2CCCC2)C1", "note": "(stereo not drawn) [A(195), 6-Cyclopentyl-6-[2-(4-hydroxy-3-hydroxymethyl-phenyl)-ethyl]-dihydro-pyran-2,4-dione]", "values": [{"measurement": "IC50", "result": 11000, "unit": "nM"}]}, {"molecule": "COc1ccc(CCC2(C3CCCC3)CC(O)=C(Cc3nc4ncc(Cl)cn4n3)C(=O)O2)c(OC)c1", "note": "(stereo not drawn) [B(119), 3-(6-Chloro-[1,2,4]triazolo[1,5-a]pyrimidin-2-ylmethyl)-6-cyclopentyl-6-[2-(2,4-dimethoxy-phenyl)-ethyl]-4-hydroxy-5,6-dihydro-pyran-2-one]", "values": [{"measurement": "IC50", "result": 70, "unit": "nM"}]}, {"molecule": "CCc1ccc(O)c(CCC2(C3CCCC3)CC(O)=C(Cc3nc4ncc(Cl)cn4n3)C(=O)O2)c1", "note": "(single isomer, unassigned; enantiomer 1) [A(171), Enantiomer 1 of 3-(6-Chloro-[1,2,4]triazolo[1,5-a]pyrimidin-2-ylmethyl)-6-cyclopentyl-6-[2-(5-ethyl-2-hydroxy-phenyl)-ethyl]-4-hydroxy-5,6-dihydro-pyran-2-one]", "values": [{"measurement": "IC50", "result": 4, "unit": "nM"}]}, {"molecule": "CC(C)(CNC(=O)c1cc[nH]n1)c1cccc(CCC2(C3CCCC3)CC(=O)CC(=O)O2)c1", "note": "(stereo not drawn) [A(71), 1H-Pyrazole-3-carboxylic acid (2-{3-[2-(2-cyclopentyl-4,6-dioxo-tetrahydro-pyran-2-yl)-ethyl]-phenyl}-2-methyl-propyl)-amide]", "values": [{"measurement": "IC50", "result": 1900, "unit": "nM"}]}, {"molecule": "CC1(c2ccc(CCC3(C4CCCC4)CC(=O)CC(=O)O3)cc2Cl)CC(=O)CC(=O)O1", "note": "(stereo not drawn) [A(27), 6-[2-(3-Chloro-4-(6-Methyl-dihydro-pyran-2,4-dione)-phenyl)-ethyl]-6-cyclopentyl-dihydro-pyran-2,4-dione]", "values": [{"measurement": "IC50", "result": 125, "unit": "nM"}]}, {"molecule": "O=C1OC(CCCC2CCCCC2)(C2CCCC2)CC(O)=C1Sc1nnc(-c2ccncc2)[nH]1", "note": "(stereo not drawn) [C(30), 6-(3-Cyclohexyl-propyl)-6-cyclopentyl-4-hydroxy-3-(5-pyridin-4-yl-4H-[1,2,4]triazol-3-ylsulfanyl)-5,6-dihydro-pyran-2-one]", "values": [{"measurement": "IC50", "result": 550, "unit": "nM"}]}, {"molecule": "COc1ccc(CCC2(C3CCCC3)CC(O)=C(Sc3nc4cc(C)ccc4[nH]3)C(=O)O2)cc1Cl", "note": "(stereo not drawn) [C(53), 6-[2-(3-chloro-4-methoxyphenyl)ethyl]-6-cyclopentyl-4-hydroxy-3-[(5-methyl-1H-benzimidazol-2-yl)thio]-5,6-dihydro-2H-pyran-2-one]", "values": [{"measurement": "IC50", "result": 67, "unit": "nM"}]}, {"molecule": "CN(c1ccc(CCC2(C3CCCC3)CC(=O)CC(=O)O2)cc1)S(C)(=O)=O", "note": "(stereo not drawn) [A(88), N-{4-[2-(2-cyclopentyl-4,6-dioxotetrahydro-2H-pyran-2-yl)ethyl]phenyl}-N-methylmethanesulfonamide]", "values": [{"measurement": "IC50", "result": 2300, "unit": "nM"}]}, {"molecule": "CCc1cccc(CCC2(C3CCCC3)CC(O)=C(Cc3nc4nc(C)cc(C)n4n3)C(=O)O2)c1", "note": "(single isomer, unassigned) [J(8), 6-Cyclopentyl-3-(5,7-dimethyl-[1,2,4]triazolo[1,5-a]pyrimidin-2-ylmethyl)-6-[2-(3-ethyl-phenyl)-ethyl]-4-hydroxy-5,6-dihydro-pyran-2-one]", "values": [{"measurement": "IC50", "result": 14, "unit": "nM"}]}]}
